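Each compound was tested at five concentrations against cells in 96-well plates for 48 hours. Abbreviation: GI50, concentration required for 50% inhibition of growth.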 Activity calls are given as the source filed them. Rule as the data show it: active = GI50 up to about 1.1 µM and inactive = higher.
Experiments:
Assay in all cases: NCI anticancer screen, dose series, 48 h
SNB-75 = system: SNB-75
CAKI-1 = system: CAKI-1
786-0 = system: 786-0
SR = system: SR
KM12 = system: KM12
SF-539 = system: SF-539
A498 = system: A498
OVCAR-4 = system: OVCAR-4
LXFL 529 = system: LXFL 529
RXF 393 = system: RXF 393
SN12C = system: SN12C
OVCAR-5 = system: OVCAR-5
Malme-3M = system: Malme-3M
HL-60 = system: HL-60
HCT-116 = system: HCT-116
UO-31 = system: UO-31
HT-29 = system: HT-29
XF498 = system: XF498
COLO 205 = system: COLO 205
M14 = system: M14
MOLT-4 = system: MOLT-4
SNB-19 = system: SNB-19
NCI-H23 = system: NCI-H23
ACHN = system: ACHN
UACC-257 = system: UACC-257
TK-10 = system: TK-10
HOP-92 = system: HOP-92
UACC-62 = system: UACC-62
A549 = system: A549
SK-MEL-5 = system: SK-MEL-5
NCI-H226 = system: NCI-H226
SK-OV-3 = system: SK-OV-3
HOP-62 = system: HOP-62
HOP-18 = system: HOP-18
SNB-78 = system: SNB-78
U-251 = system: U-251
EKVX = system: EKVX
M19-MEL = system: M19-MEL
IGROV-1 = system: IGROV-1
SF-268 = system: SF-268
SK-MEL-2 = system: SK-MEL-2
OVCAR-3 = system: OVCAR-3
SW-620 = system: SW-620
OVCAR-8 = system: OVCAR-8
DMS-273 = system: DMS-273
NCI-H522 = system: NCI-H522
HCC 2998 = system: HCC 2998
K562 = system: K562
SF-295 = system: SF-295
LOX IMVI = system: LOX IMVI
SK-MEL-28 = system: SK-MEL-28
DLD-1 = system: DLD-1
CCRF-CEM = system: CCRF-CEM
KM-20L2 = system: KM-20L2
DMS-114 = system: DMS-114
NCI-H460 = system: NCI-H460
RPMI-8226 = system: RPMI-8226
HCT-15 = system: HCT-15

With `Fc1cccc2c1cc1ccc3cccc4ccc2c1c34` the GI50 (SNB-75) was > 100 µM (inactive), the GI50 (CAKI-1) was > 100 µM (inactive) and the GI50 (786-0) was > 100 µM (inactive). The GI50 (SR) was 60.5 µM (inactive), the GI50 (KM12) was > 100 µM (inactive) and the GI50 (SF-539) was > 100 µM (inactive). For the same compound, the GI50 (A498) was > 100 µM (inactive), the GI50 (OVCAR-4) was > 100 µM (inactive) and the GI50 (LXFL 529) was > 100 µM (inactive). The GI50 (RXF 393) was > 100 µM (inactive), the GI50 (SN12C) was > 100 µM (inactive) and the GI50 (OVCAR-5) was > 100 µM (inactive). The GI50 (Malme-3M) was > 100 µM (inactive), the GI50 (HL-60) was > 100 µM (inactive) and the GI50 (HCT-116) was > 100 µM (inactive). For the same compound, the GI50 (UO-31) was > 100 µM (inactive), the GI50 (HT-29) was > 100 µM (inactive) and the GI50 (XF498) was > 100 µM (inactive). The GI50 (COLO 205) was > 100 µM (inactive), the GI50 (M14) was > 100 µM (inactive) and the GI50 (MOLT-4) was > 100 µM (inactive). The GI50 (SNB-19) was > 100 µM (inactive), the GI50 (NCI-H23) was > 100 µM (inactive) and the GI50 (ACHN) was > 100 µM (inactive). For the same compound, the GI50 (UACC-257) was 95.7 µM (inactive), the GI50 (TK-10) was 60.1 µM (inactive) and the GI50 (HOP-92) was > 100 µM (inactive). For the same compound, the GI50 (UACC-62) was > 100 µM (inactive), the GI50 (A549) was > 100 µM (inactive) and the GI50 (SK-MEL-5) was > 100 µM (inactive). The GI50 (NCI-H226) was > 100 µM (inactive), the GI50 (SK-OV-3) was > 100 µM (inactive) and the GI50 (HOP-62) was > 100 µM (inactive). For the same compound, the GI50 (HOP-18) was > 100 µM (inactive), the GI50 (SNB-78) was > 100 µM (inactive) and the GI50 (U-251) was > 100 µM (inactive). For the same compound, the GI50 (EKVX) was > 100 µM (inactive), the GI50 (M19-MEL) was > 100 µM (inactive) and the GI50 (IGROV-1) was > 100 µM (inactive). For the same compound, the GI50 (SF-268) was > 100 µM (inactive), the GI50 (SK-MEL-2) was > 100 µM (inactive) and the GI50 (OVCAR-3) was > 100 µM (inactive). The GI50 (SW-620) was > 100 µM (inactive), the GI50 (OVCAR-8) was > 100 µM (inactive) and the GI50 (DMS-273) was > 100 µM (inactive). For the same compound, the GI50 (NCI-H522) was > 100 µM (inactive), the GI50 (HCC 2998) was > 100 µM (inactive) and the GI50 (K562) was > 100 µM (inactive). For the same compound, the GI50 (SF-295) was > 100 µM (inactive), the GI50 (LOX IMVI) was > 100 µM (inactive) and the GI50 (SK-MEL-28) was > 100 µM (inactive). The GI50 (DLD-1) was > 100 µM (inactive), the GI50 (CCRF-CEM) was > 100 µM (inactive) and the GI50 (KM-20L2) was > 100 µM (inactive).
`N=c1c2ccccc2sc2nc3ccccc3n12` was tested, and the GI50 (CAKI-1) was 48.6 µM (inactive), the GI50 (786-0) was 97.5 µM (inactive) and the GI50 (SR) was > 100 µM (inactive). The GI50 (KM12) was > 100 µM (inactive), the GI50 (SF-539) was > 100 µM (inactive) and the GI50 (A498) was > 100 µM (inactive). The GI50 (OVCAR-4) was 33.9 µM (inactive), the GI50 (LXFL 529) was > 100 µM (inactive) and the GI50 (RXF 393) was > 100 µM (inactive). The GI50 (SN12C) was > 100 µM (inactive), the GI50 (OVCAR-5) was > 100 µM (inactive) and the GI50 (Malme-3M) was > 100 µM (inactive). For the same compound, the GI50 (HL-60) was > 100 µM (inactive), the GI50 (UO-31) was > 100 µM (inactive) and the GI50 (HT-29) was > 100 µM (inactive). The GI50 (XF498) was 85.1 µM (inactive), the GI50 (DMS-114) was > 100 µM (inactive) and the GI50 (COLO 205) was > 100 µM (inactive). The GI50 (MOLT-4) was > 100 µM (inactive), the GI50 (SNB-19) was > 100 µM (inactive) and the GI50 (NCI-H23) was > 100 µM (inactive). The GI50 (ACHN) was > 100 µM (inactive), the GI50 (UACC-257) was > 100 µM (inactive) and the GI50 (TK-10) was > 100 µM (inactive). The GI50 (HOP-92) was > 100 µM (inactive), the GI50 (UACC-62) was > 100 µM (inactive) and the GI50 (NCI-H460) was > 100 µM (inactive). For the same compound, the GI50 (A549) was > 100 µM (inactive), the GI50 (SK-MEL-5) was > 100 µM (inactive) and the GI50 (NCI-H226) was 57.9 µM (inactive). The GI50 (SK-OV-3) was 72.3 µM (inactive), the GI50 (HOP-62) was > 100 µM (inactive) and the GI50 (HOP-18) was > 100 µM (inactive). The GI50 (SNB-78) was > 100 µM (inactive), the GI50 (U-251) was > 100 µM (inactive) and the GI50 (EKVX) was 86.1 µM (inactive). For the same compound, the GI50 (M19-MEL) was > 100 µM (inactive), the GI50 (IGROV-1) was > 100 µM (inactive) and the GI50 (SF-268) was > 100 µM (inactive). For the same compound, the GI50 (SK-MEL-2) was > 100 µM (inactive), the GI50 (SW-620) was > 100 µM (inactive) and the GI50 (OVCAR-8) was > 100 µM (inactive). For the same compound, the GI50 (DMS-273) was > 100 µM (inactive), the GI50 (NCI-H522) was 71.3 µM (inactive) and the GI50 (HCC 2998) was > 100 µM (inactive). For the same compound, the GI50 (K562) was > 100 µM (inactive), the GI50 (SF-295) was > 100 µM (inactive) and the GI50 (LOX IMVI) was > 100 µM (inactive). The GI50 (SK-MEL-28) was > 100 µM (inactive), the GI50 (DLD-1) was > 100 µM (inactive) and the GI50 (CCRF-CEM) was > 100 µM (inactive).
`Cc1ccc(NC(=O)CCc2cc(C(C)(C)C)nc(S)n2)cc1C` was tested, and the GI50 (RPMI-8226) was > 100 µM (inactive), the GI50 (SNB-75) was > 100 µM (inactive) and the GI50 (CAKI-1) was > 100 µM (inactive). For the same compound, the GI50 (786-0) was > 100 µM (inactive), the GI50 (SR) was > 100 µM (inactive) and the GI50 (KM12) was > 100 µM (inactive). The GI50 (SF-539) was > 100 µM (inactive), the GI50 (A498) was > 100 µM (inactive) and the GI50 (LXFL 529) was > 100 µM (inactive). The GI50 (RXF 393) was > 100 µM (inactive), the GI50 (SN12C) was > 100 µM (inactive) and the GI50 (OVCAR-5) was > 100 µM (inactive). For the same compound, the GI50 (Malme-3M) was > 100 µM (inactive), the GI50 (HL-60) was > 100 µM (inactive) and the GI50 (HCT-116) was > 100 µM (inactive). For the same compound, the GI50 (UO-31) was > 100 µM (inactive), the GI50 (HT-29) was > 100 µM (inactive) and the GI50 (XF498) was > 100 µM (inactive). For the same compound, the GI50 (DMS-114) was > 100 µM (inactive), the GI50 (COLO 205) was > 100 µM (inactive) and the GI50 (M14) was > 100 µM (inactive). The GI50 (MOLT-4) was > 100 µM (inactive), the GI50 (SNB-19) was > 100 µM (inactive) and the GI50 (NCI-H23) was > 100 µM (inactive). The GI50 (ACHN) was > 100 µM (inactive), the GI50 (UACC-257) was > 100 µM (inactive) and the GI50 (TK-10) was > 100 µM (inactive). The GI50 (HOP-92) was > 100 µM (inactive), the GI50 (UACC-62) was > 100 µM (inactive) and the GI50 (NCI-H460) was > 100 µM (inactive). For the same compound, the GI50 (A549) was > 100 µM (inactive), the GI50 (SK-MEL-5) was > 100 µM (inactive) and the GI50 (NCI-H226) was > 100 µM (inactive). For the same compound, the GI50 (SK-OV-3) was > 100 µM (inactive), the GI50 (HOP-62) was > 100 µM (inactive) and the GI50 (HOP-18) was > 100 µM (inactive). The GI50 (SNB-78) was > 100 µM (inactive), the GI50 (U-251) was > 100 µM (inactive) and the GI50 (HCT-15) was greater than 100 µM. The GI50 (EKVX) was > 100 µM (inactive), the GI50 (IGROV-1) was > 100 µM (inactive) and the GI50 (SF-268) was > 100 µM (inactive). The GI50 (SK-MEL-2) was > 100 µM (inactive), the GI50 (OVCAR-3) was > 100 µM (inactive) and the GI50 (SW-620) was > 100 µM (inactive). The GI50 (OVCAR-8) was > 100 µM (inactive), the GI50 (DMS-273) was > 100 µM (inactive) and the GI50 (NCI-H522) was > 100 µM (inactive). For the same compound, the GI50 (HCC 2998) was > 100 µM (inactive), the GI50 (K562) was > 100 µM (inactive) and the GI50 (SF-295) was > 100 µM (inactive). For the same compound, the GI50 (LOX IMVI) was > 100 µM (inactive), the GI50 (SK-MEL-28) was > 100 µM (inactive) and the GI50 (CCRF-CEM) was > 100 µM (inactive). The GI50 (KM-20L2) was > 100 µM (inactive).
